In ChEMBL document CHEMBL1138938, “Design, synthesis, and SAR studies on a series of 2-pyridinylpiperazines as potent antagonists of the melanocortin-4 receptor” (Bioorg Med Chem Lett, 2006):

biological target: Melanocortin receptor 4 (Homo sapiens, UniProt P32245); experiment: Displacement of [125I]NDP-MSH from human MC4R expressed in HEK293 cells; assay type: cell-based; conditions: not given
Sequence (P32245 whole entry): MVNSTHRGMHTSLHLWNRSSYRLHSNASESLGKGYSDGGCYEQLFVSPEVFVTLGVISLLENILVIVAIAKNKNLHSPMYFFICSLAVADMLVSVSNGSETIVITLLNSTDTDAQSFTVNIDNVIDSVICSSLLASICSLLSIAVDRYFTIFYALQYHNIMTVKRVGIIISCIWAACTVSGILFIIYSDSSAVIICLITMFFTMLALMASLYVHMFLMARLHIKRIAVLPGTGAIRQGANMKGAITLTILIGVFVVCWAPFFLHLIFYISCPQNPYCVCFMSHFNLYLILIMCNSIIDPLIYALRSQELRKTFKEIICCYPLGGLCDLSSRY

First: COc1ccccc1CCNCc1ccccc1N1CCN(C(=O)[C@@H](Cc2ccc(Cl)cc2Cl)NC(=O)CCN)CC1
Second: COc1ccccc1CCNCc1cccnc1N1CCN(C(=O)[C@@H](Cc2ccc(Cl)cc2Cl)NC(=O)CCN)CC1
The Ki of the first is 4.2-fold lower: 0.0016 µM for the first, 0.0067 µM for the second. The first binds more tightly here.

Going from CC(C)NC(=O)NCc1cccnc1N1CCN(C(=O)[C@@H](Cc2ccc(Cl)cc2Cl)NC(=O)CCN)CC1 to CC(=O)NCc1cccnc1N1CCN(C(=O)[C@@H](Cc2ccc(Cl)cc2Cl)NC(=O)CCN)CC1, the Ki rises from 1.3 µM to 2.8 µM (2.2-fold).

Going from CCC(CO)NCc1cccnc1N1CCN(C(=O)[C@@H](Cc2ccc(Cl)cc2Cl)NC(=O)CCN)CC1 (stereo not given in full) to NCCC(=O)N[C@H](Cc1ccc(Cl)cc1Cl)C(=O)N1CCN(c2ncccc2CNC(CO)CO)CC1, the Ki rises from 0.71 µM to 1.5 µM (2.1-fold).

Going from NCCC(=O)N[C@H](Cc1ccc(Cl)cc1Cl)C(=O)N1CCN(c2ncccc2CNCCO)CC1 to NCCC(=O)N[C@H](Cc1ccc(Cl)cc1Cl)C(=O)N1CCN(c2ncccc2CNCC(F)(F)F)CC1, the Ki falls from 0.52 µM to 0.17 µM (3.1-fold).

NCCC(=O)N[C@H](Cc1ccc(Cl)cc1Cl)C(=O)N1CCN(c2ncccc2CNC(=O)c2ccco2)CC1 and NCCC(=O)N[C@H](Cc1ccc(Cl)cc1Cl)C(=O)N1CCN(c2ncccc2CNC(=O)c2cccs2)CC1 are within 1.5-fold of each other in Ki: 2.6 µM for the first, 1.8 µM for the second.

Going from NCCC(=O)N[C@H](Cc1ccc(Cl)cc1Cl)C(=O)N1CCN(c2ncccc2CNC(=O)NCc2cccs2)CC1 to NCCC(=O)N[C@H](Cc1ccc(Cl)cc1Cl)C(=O)N1CCN(c2ncccc2CNC(=O)Cc2cccs2)CC1, the Ki falls from 0.75 µM to 0.31 µM (2.4-fold). The second binds more tightly here.

First: COCC(C)NCc1ccccc1N1CCN(C(=O)[C@@H](Cc2ccc(Cl)cc2Cl)NC(=O)CCN)CC1 (stereo not given in full)
Second: COCC(C)NCc1cccnc1N1CCN(C(=O)[C@@H](Cc2ccc(Cl)cc2Cl)NC(=O)CCN)CC1 (stereo not given in full)
The Ki of the first is 9.9-fold lower: 0.0088 µM for the first, 0.087 µM for the second.

Compared with NCCC(=O)N[C@H](Cc1ccc(Cl)cc1Cl)C(=O)N1CCN(c2ncccc2CNC(=O)c2ccc(F)cc2)CC1, NCCC(=O)N[C@H](Cc1ccc(Cl)cc1Cl)C(=O)N1CCN(c2ncccc2CNC(=O)Cc2ccc(F)cc2)CC1 is 2.2-fold lower in Ki: 2.2 µM for the first, 1 µM for the second. The second binds more tightly here.

First: CC(CO)NCc1cccnc1N1CCN(C(=O)[C@@H](Cc2ccc(Cl)cc2Cl)NC(=O)CCN)CC1C (stereo not given in full)
Second: CCC(COC)NCc1cccnc1N1CCN(C(=O)[C@@H](Cc2ccc(Cl)cc2Cl)NC(=O)CCN)CC1 (stereo not given in full)
The Ki of the first is 2.1-fold higher: 0.42 µM for the first, 0.2 µM for the second. The second binds more tightly here.

Going from COc1ccccc1CC(=O)NCc1cccnc1N1CCN(C(=O)[C@@H](Cc2ccc(Cl)cc2Cl)NC(=O)CCN)CC1 to COc1ccccc1CNC(=O)NCc1cccnc1N1CCN(C(=O)[C@@H](Cc2ccc(Cl)cc2Cl)NC(=O)CCN)CC1, the Ki rises from 0.36 µM to 0.56 µM (1.6-fold). The first binds more tightly here.

NCCC(=O)N[C@H](Cc1ccc(Cl)cc1Cl)C(=O)N1CCN(c2ncccc2CNC(=O)Nc2ccccc2F)CC1 and NCCC(=O)N[C@H](Cc1ccc(Cl)cc1Cl)C(=O)N1CCN(c2ncccc2CNC(=O)NCc2ccccc2F)CC1 are within 1.5-fold of each other in Ki: 1.1 µM for the first, 1 µM for the second.

First: NCCC(=O)N[C@H](Cc1ccc(Cl)cc1Cl)C(=O)N1CCN(c2ncccc2CNC(=O)Oc2ccccc2)CC1
Second: NCCC(=O)N[C@H](Cc1ccc(Cl)cc1Cl)C(=O)N1CCN(c2ncccc2CNC(=O)OCc2ccccc2)CC1
The Ki of the first is 2.7-fold higher: 1.2 µM for the first, 0.44 µM for the second.

First: COc1ccccc1CCNCc1cccnc1N1CCN(C(=O)[C@@H](Cc2ccc(Cl)cc2Cl)NC(C)=O)CC1
Second: CC(=O)N[C@H](Cc1ccc(Cl)cc1Cl)C(=O)N1CCN(c2ncccc2CNCCc2cccs2)CC1
The Ki of the first is 2.1-fold lower: 0.01 µM for the first, 0.021 µM for the second.

Going from COCC(C)NCc1cccnc1N1CCN(C(=O)[C@@H](Cc2ccc(Cl)cc2Cl)NC(C)=O)CC1 (stereo not given in full) to COCC(=O)NCc1cccnc1N1CCN(C(=O)[C@@H](Cc2ccc(Cl)cc2Cl)NC(=O)CCN)CC1, the Ki rises from 0.18 µM to 2.8 µM (16-fold). The first binds more tightly here.

Going from NCCC(=O)N[C@H](Cc1ccc(Cl)cc1Cl)C(=O)N1CCN(c2ncccc2CNC(=O)Nc2ccccc2)CC1 to NCCC(=O)N[C@H](Cc1ccc(Cl)cc1Cl)C(=O)N1CCN(c2ncccc2CNC(=O)c2ccccc2)CC1, the Ki rises from 0.71 µM to 1.8 µM (2.5-fold).

Going from COc1ccc(CC(=O)NCc2cccnc2N2CCN(C(=O)[C@@H](Cc3ccc(Cl)cc3Cl)NC(=O)CCN)CC2)cc1 to COc1ccc(C(=O)NCc2cccnc2N2CCN(C(=O)[C@@H](Cc3ccc(Cl)cc3Cl)NC(=O)CCN)CC2)cc1, the Ki rises from 0.55 µM to 1.5 µM (2.7-fold).

COc1ccccc1NC(=O)NCc1cccnc1N1CCN(C(=O)[C@@H](Cc2ccc(Cl)cc2Cl)NC(=O)CCN)CC1 and COc1ccccc1OC(=O)NCc1cccnc1N1CCN(C(=O)[C@@H](Cc2ccc(Cl)cc2Cl)NC(=O)CCN)CC1 are within 1.5-fold of each other in Ki: 1.3 µM for the first, 1.8 µM for the second.

Compared with CC(C)(CO)NCc1cccnc1N1CCN(C(=O)[C@@H](Cc2ccc(Cl)cc2Cl)NC(=O)CCN)CC1, NCCC(=O)N[C@H](Cc1ccc(Cl)cc1Cl)C(=O)N1CCN(c2ncccc2CNCCc2cccs2)CC1 is 32-fold lower in Ki: 0.48 µM for the first, 0.015 µM for the second.

First: NCCC(=O)N[C@H](Cc1ccc(Cl)cc1Cl)C(=O)N1CCN(c2ncccc2CNC(=O)Cc2ccccc2F)CC1
Second: NCCC(=O)N[C@H](Cc1ccc(Cl)cc1Cl)C(=O)N1CCN(c2ncccc2CNCc2ccccc2F)CC1
The Ki of the first is 3.5-fold higher: 0.45 µM for the first, 0.13 µM for the second.

NCCC(=O)N[C@H](Cc1ccc(Cl)cc1Cl)C(=O)N1CCN(c2ncccc2CNCCc2ccccc2F)CC1 gave a Ki of 0.012 µM.

biological target: Melanocortin receptor 3 (Homo sapiens, UniProt P41968); experiment: Displacement of [125I]NDP-MSH from human MC3R expressed in HEK293 cells; assay type: cell-based; conditions: not given
Sequence (P41968 whole entry): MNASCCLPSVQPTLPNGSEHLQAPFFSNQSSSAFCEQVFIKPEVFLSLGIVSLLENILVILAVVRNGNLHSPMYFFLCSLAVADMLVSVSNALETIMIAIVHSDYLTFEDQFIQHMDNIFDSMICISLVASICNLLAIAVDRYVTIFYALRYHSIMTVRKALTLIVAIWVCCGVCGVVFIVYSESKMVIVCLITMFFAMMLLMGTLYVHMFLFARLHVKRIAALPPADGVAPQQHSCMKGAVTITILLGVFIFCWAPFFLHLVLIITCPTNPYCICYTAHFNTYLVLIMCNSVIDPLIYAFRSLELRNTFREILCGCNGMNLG

Work on COc1ccccc1CCNCc1cccnc1N1CCN(C(=O)[C@@H](Cc2ccc(Cl)cc2Cl)NC(=O)CCN)CC1 yielded a Ki of 5 µM.

biological target: Melanocortin receptor 5 (Homo sapiens, UniProt P33032); experiment: Displacement of [125I]NDP-MSH from human MC5R expressed in HEK293 cells; assay type: cell-based; conditions: not given
Sequence (P33032 whole entry): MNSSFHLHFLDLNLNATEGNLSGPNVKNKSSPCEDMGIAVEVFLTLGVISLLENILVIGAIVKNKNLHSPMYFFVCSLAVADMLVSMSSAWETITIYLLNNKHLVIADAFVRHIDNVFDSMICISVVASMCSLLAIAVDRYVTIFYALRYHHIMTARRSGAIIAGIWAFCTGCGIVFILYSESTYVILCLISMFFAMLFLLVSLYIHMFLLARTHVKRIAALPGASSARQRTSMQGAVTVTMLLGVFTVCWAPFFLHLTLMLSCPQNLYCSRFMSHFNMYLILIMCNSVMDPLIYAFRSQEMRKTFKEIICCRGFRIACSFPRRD

Compound COc1ccccc1CCNCc1cccnc1N1CCN(C(=O)[C@@H](Cc2ccc(Cl)cc2Cl)NC(=O)CCN)CC1 has a Ki of 2.1 µM.

system: not listed separately; experiment: Intrinsic clearance in rat liver microsome; assay type: ADME; conditions: liver microsomes

First: COc1ccccc1CCNCc1cccnc1N1CCN(C(=O)[C@@H](Cc2ccc(Cl)cc2Cl)NC(C)=O)CC1
Second: COc1ccccc1CCNCc1cccnc1N1CCN(C(=O)[C@@H](Cc2ccc(Cl)cc2Cl)NC(=O)CCN)CC1
The CLint scaled of the first is 9-fold higher: 3500 mL/min/kg for the first, 390 mL/min/kg for the second.

system: not listed separately; experiment: Oral bioavailability in rat; assay type: ADME, organism-based; conditions: in vivo

First: COc1ccccc1CCNCc1cccnc1N1CCN(C(=O)[C@@H](Cc2ccc(Cl)cc2Cl)NC(C)=O)CC1
Second: COc1ccccc1CCNCc1cccnc1N1CCN(C(=O)[C@@H](Cc2ccc(Cl)cc2Cl)NC(=O)CCN)CC1
The bioavailability of the first is lower: 0% for the first, 15% for the second.
